Broadly, the IC50 is the concentration that inhibits the measured activity by half. A high value points to weaker potency in that assay.

Each structure is given as a SMILES string. Read-outs that look alike come from different tables or passages of the source. Positions of bridges follow the written chain, without caps; N, C: chain ends. Residues, ends and D or L forms follow the SMILES beside them.

This is an account of results in US20040106545A1, “Compounds and methods for modulating cell adhesion” (priority 1996, published 2004).

Data set [1] deals with chick embryonic chorioallantoic membranes. The data set can be described thus: Chick chorioallantoic membrane angiogenesis assay. The format is in vivo. The conditions noted are these: for Percent Inhibition of Angiogenesis: 24 hours; for inhibition of angiogenesis (in words): 3, 17 and 33 μg/mesh. How it is done:
Another cell adhesion assay evaluates the ability of a modulating agent to block angiogenesis (the growth of blood vessels from pre-existing blood vessels). This ability may be assayed using the chick chorioallantoic membrane assay described by Iruela-Arispe et al., Molecular Biology of the Cell 6:327-343, 1995. Briefly, a modulating agent may be embedded in a mesh composed of vitrogen at one or more concentrations (e.g., ranging from about 1 to 100 μg/mesh). The mesh(es) may then be applied to chick chorioallantoic membranes. After 24 hours, the effect of the peptide may be determined using computer assisted morphometric analysis. A modulating agent should inhibit angiogenesis by at least 25% at a concentration of 33 μg/mesh.
The chick chorioallantoic membrane assay was used to assess the effects of cyclic peptides on angiogenesis (Iruela-Arispe et al., Molecular Biology of the Cell 6:327-343, 1995). Cyclic peptides were embedded in a mesh composed of vitrogen at concentrations of 3, 17, and 33 μg/mesh. The meshes were then applied to 12-day-old chick embryonic chorioallantoic membranes. After 24 hours, the effects of the peptides on angiogenesis were assessed by computer assisted morphometric analysis.

A further data set concerns MDA-MB231. The data set can be described thus: Cytotoxicity, MTT assay, MDA-MB231. Type of data set: cell-based, human. Put shortly: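 Cytotoxicity of N-Ac-CHAVC-NH2 and the control peptide N-Ac-CHGVC-NH2 was assessed by MTT reduction in human endothelial, fibroblast and cancer cell lines at concentrations up to 100 μM. Proliferation was measured separately by ^3H-thymidine incorporation over the same concentration range.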
(Tetrazolium assays rely on reduction of a dye to a coloured formazan, in cell work by metabolically active cells.)

The test system of another data set is SKOV3 cells. The data set is described as follows: Disruption of human ovarian cancer cell (SKOV3) adhesion. The following applies: for activity in SKOV3 cells (cell adhesion): 0.01-1 mg/mL; for disruption of SKOV3 cell adhesion: 1 mg/mL media, within 24 hours. The format is cell-based. On the procedure:
FIGS. 37A and 37B are photographs illustrating the effect of N—Ac-CHAVC-Y—NH2 (SEQ ID NO:84) on SKOV3 cell adhesion. A confluent culture of SKOV3 cells was briefly trypsinated and counted using a hemacytometer. The cells were diluted to 5×10^3/mL in MEM (Gibco BRL) containing 10% FBS (Wisent). A 10 mg/mL solution of peptide was added directly to the media at a concentration of 1 mg/mL. The plate was incubated in a humidified chamber at 37° C. for 24 hours in 5% CO2. Morphological changes were evaluated after 24 hours.
The human ovarian cancer cell line SKOV3 (ATCC #HTB-77) expresses N-cadherin. SKOV3 cells were cultured in a modified MEM-based media containing 10% FCS. Cells were grown in T-250 culture flasks and maintained by periodic subculturing. Cyclic peptides were tested on cells grown in individual wells of 96-well culture dishes (surface area of each well was 0.32 cm^2). Cells were harvested from flasks and seeded at a density of 50,000 cells per well in 0.1 mL media containing the cyclic peptides at concentrations of 1, 0.1, or 0.01 mg/mL, or in the absence of cyclic peptide. Media control wells were also established. Cultures were evaluated periodically by microscopic examination under both bright field and phase contrast conditions. Cultures were maintained for 48 hours.

The target in another data set is T1, chick N-cadherin (Gallus gallus, UniProt P10288).
T1 construct: expressed in transfected cells; host or cells: 3T3 fibroblasts (monolayer); rat post-natal day 2-3 cerebellar neurons plated on top
T1 sequence (P10288 165-912): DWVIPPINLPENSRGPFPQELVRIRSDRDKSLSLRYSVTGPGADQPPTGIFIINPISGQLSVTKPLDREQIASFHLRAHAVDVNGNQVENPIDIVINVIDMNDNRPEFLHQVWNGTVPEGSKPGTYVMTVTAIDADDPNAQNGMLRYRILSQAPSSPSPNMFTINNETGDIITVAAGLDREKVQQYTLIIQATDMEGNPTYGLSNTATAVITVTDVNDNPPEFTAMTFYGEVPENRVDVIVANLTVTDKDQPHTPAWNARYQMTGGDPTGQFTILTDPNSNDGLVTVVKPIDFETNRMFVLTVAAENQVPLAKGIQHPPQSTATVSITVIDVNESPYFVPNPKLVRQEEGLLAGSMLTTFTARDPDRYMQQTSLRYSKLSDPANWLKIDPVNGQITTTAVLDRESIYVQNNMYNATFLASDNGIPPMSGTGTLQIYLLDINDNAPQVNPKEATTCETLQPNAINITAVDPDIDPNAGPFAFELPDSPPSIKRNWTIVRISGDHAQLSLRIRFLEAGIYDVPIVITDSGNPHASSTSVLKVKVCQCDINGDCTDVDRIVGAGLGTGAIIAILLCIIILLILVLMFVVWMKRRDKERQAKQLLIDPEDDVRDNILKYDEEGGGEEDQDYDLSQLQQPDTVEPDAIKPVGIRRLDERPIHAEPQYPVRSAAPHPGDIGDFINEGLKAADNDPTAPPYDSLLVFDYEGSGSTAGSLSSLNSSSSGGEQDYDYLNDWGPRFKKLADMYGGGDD
The data set is described as follows: Neurite outgrowth of rat cerebellar neurons on N-cadherin expressing 3T3 monolayers (Example 15). Type of data set: cell-based. The conditions noted are these: for inhibitory activity on N-cadherin dependent neurite outgrowth, structure/activity statements: Tables 8 and 9; for effect on neurite outgrowth over N-cadherin expressing cells (in words): 500 μg/mL.

Setting [2] is: 3 μg/mesh, absence (−) of 0.01 mM VEGF.
Where [3] appears, read: 3 μg/mesh, presence (+) of 0.01 mM VEGF.
Setting [4] is: 17 μg/mesh, absence (−) of 0.01 mM VEGF.
Where [5] appears, read: 17 μg/mesh, presence (+) of 0.01 mM VEGF.
[6] abbreviates: 33 μg/mesh, absence (−) of 0.01 mM VEGF.
[7] abbreviates: 33 μg/mesh, presence (+) of 0.01 mM VEGF.

With `CC[C@H](C)[C@@H]1NC(=O)[C@H](CC(=O)O)NC(=O)[C@H](C(C)C)NC(=O)[C@H](C)NC(=O)[C@H](Cc2c[nH]cn2)NC(=O)[C@H](C)NC(=O)[C@@H](NC(C)=O)CSSC[C@@H](C(N)=O)NC1=O` (Ac-CAHAVDIC-NH2; disulfide 1-8), the “Percent Inhibition of Angiogenesis” value in data set [1] (setting [2]) is recorded as −1%^; in data set [1] (setting [3]) it was 21%; in data set [1] (setting [4]), 15%; in data set [1] (setting [5]) it was 37%; in data set [1] (setting [6]), 33%; in data set [1] (setting [7]), 49%. The “inhibition of angiogenesis (in words)” value in data set [1] is “inhibited angiogenesis significantly”. For the same molecule, in the data set with MDA-MB231, the IC50 was above 100 µM. For the same molecule, in the data set with SKOV3 cells, the “activity in SKOV3 cells (cell adhesion)” value is “inactive”. Besides, at chick N-cadherin (250 μg/mL), the “inhibition of N-cadherin dependent neurite outgrowth (in words)” value was “potent inhibitors of neurite outgrowth”. Further, the “activity on N-cadherin dependent neurite outgrowth (in words)” value at chick N-cadherin (125 micrograms/mL or below) was “lost activity”. The “inhibitory activity on N-cadherin dependent neurite outgrowth, structure/activity statements” value at chick N-cadherin was “reduced, but did not eliminate, the activity”.
`CC(=O)N[C@H]1CSSC[C@@H](C(N)=O)NC(=O)[C@H](CC(=O)O)NC(=O)[C@H](C(C)C)NC(=O)[C@H](C)NC(=O)[C@H](Cc2c[nH]cn2)NC(=O)[C@H](C)NC1=O` [N—Ac—CAHAVDC—NH2, N-Ac-Cys-Ala-His-Ala-Val-Asp-Cys-NH2] (Ac-CAHAVDC-NH2; disulfide 1-7): the “Percent Inhibition of Angiogenesis” value in data set [1] (setting [2]) came to 21%; in data set [1] (setting [3]) it was 59%; in data set [1] (setting [4]) it was 27%; in data set [1] (setting [5]), 72%; in data set [1] (setting [6]) it was 31%; in data set [1] (setting [7]), 79%. Further, the “inhibition of angiogenesis (in words)” value in data set [1] is “inhibited angiogenesis significantly”. The molecule also showed an IC50 with MDA-MB231 above 100 µM. Further, the “activity in SKOV3 cells (cell adhesion)” value with SKOV3 cells is “inactive”. In addition, on chick N-cadherin, the “inhibitory activity on N-cadherin dependent neurite outgrowth, structure/activity statements” value is “completely eliminated inhibitory activity”.
In the case of `CC(=O)N[C@H]1CSSC[C@@H](C(N)=O)NC(=O)[C@H](C(C)C)NC(=O)[C@H](C)NC(=O)[C@H](Cc2c[nH]cn2)NC1=O` [N—Ac—CHAVC—NH2, N-Ac-Cys-His-Ala-Val-Cys-NH2], the “Percent Inhibition of Angiogenesis” value is 12% in data set [1] (setting [2]); 46% in data set [1] (setting [3]); 22% in data set [1] (setting [4]); 51% in data set [1] (setting [5]); 28% in data set [1] (setting [6]); 51% in data set [1] (setting [7]). This molecule returned an IC50 in the data set with MDA-MB231 (human) above 100 µM. In addition, in the data set on SKOV3 cells, the “disruption of SKOV3 cell adhesion” value is on record as “disrupted SKOV3 cell adhesion”. In the data set on SKOV3 cells (0.5 or 1 mg/ml, 24-48 hours (figure legends)), the SKOV3 cell morphology entry was “SKOV3 cells retract from one another and round-up”. At chick N-cadherin, the “effect on neurite outgrowth over N-cadherin expressing cells (in words)” value is given as “inhibition of neurite outgrowth”. The “effect on the N-cadherin response” value on chick N-cadherin (concentrations up to 62 μg/ml) was “no significant effect on the N-cadherin response”.
Molecule `CC(=O)N[C@H]1CSSC[C@@H](C(N)=O)NC(=O)[C@H](C(C)C)NC(=O)CNC(=O)[C@H](Cc2c[nH]cn2)NC1=O` [N—Ac—CHGVC—NH2, reference compound] displayed an IC50 in the data set on MDA-MB231 above 100 µM. Moreover, the “disruption of SKOV3 cell adhesion” value in the data set with SKOV3 cells is given as “had no affect on cell adhesion”. Besides, the “effect on neurite outgrowth over N-cadherin expressing cells (in words)” value at chick N-cadherin is reported as “had no effect on neurite outgrowth”.
